Read-outs that look alike come from different tables or passages of the source.
Tests used:
[1] = Reverse mutation test
Procedure: A reverse mutagenicity test was performed using the compound of Example 1 (b) of the present specification, hydrochloride of 5,7-dimethyl-2-(1-piperazinyl)benzoxazole (C), hydrochloride of 5-chloro-7-methyl-2-(4-methyl-1-piperazinyl)benzoxazole (D), and hydrochloride of 5-chloro-7-methyl-2-(4-methyl-1-homopiperazinyl) benzoxazole (E) (compounds disclosed in Japanese Patent Publication (KOKAI) No. 10-29987/1998), and the compound described in Reference Example 4 of the present specification, i.e., hydrochloride of 5-chloro-7-methyl-2-(1-piperazinyl) benzoxazole (F) according to the method of T. Matsushima et al. (Noropoth K. H., Springer, Berlin-Heidelberg-New York, “Short-Term Test Systems For Detecting Carcinogens”, pp. 273–285, 1980) referred by the guideline 471 of ORGANIZATION FOR ECONOMIC CO-OPERATION AND DEVELOPMENT.

[2] = Toxicity test, oral administration to mice; assay type: in vivo; details: 300 mg/kg, suspended in distilled water, 7-week old male mice
Procedure: The compound of Example 1 (b) gave no death of the animal at a dose of 300 mg/kg.

[3] = system: rat diarrhea under restriction stress; test: Inhibitory action for rat diarrhea under restriction stress; assay type: in vivo; details: oral, 30 min before restraint, male Wistar rats, 3 hours, nonlinear least square method
Procedure: L. Williams et al. [GASTROENTEROLOGY, 94, 611–621 (1988)] was determined as follows, and the results were analyzed by the nonlinear least square method. 8-Week old male Wistar rats were starved from the evening of the day before the test. Each test compound was orally administered to the rats. After 30 minutes, the rats were constrained by binding of their fore-limbs and hind-limbs with wires. The rats were left in individual gages on white sheets under luminescent lamps for 3 hours. […] The test was performed with groups of rats each consisting of 8 rats.

[4] = system: large bowel transportation ability of normal mice; test: Effect on large bowel transportation ability of normal mice (glass bead excretion); assay type: in vivo, mouse; details: ddY male mice, bead inserted after 30 minutes
Procedure: G. et al. [Drug Dev. Res., 9, 241-247, (1986)] was determined as follows. Each test compound was orally administered to 5- to 7-week old ddY male mice starved for about 4 hours. […] After the insertion of the glass bead, time (second) from the insertion to excretion of the bead from the anus was measured, and the time was used as an index of large bowel transportation ability. The test was performed by using groups of mice each consisting of 9 to 11 mice, and all of the procedures were performed under no anesthesia.

[5] = Metabolic activity in human liver, in vitro system with S9 fraction; assay type: in vitro ADME; details: 50 μmol/L test compound, 1 mg/mL human liver S9, NADPH production system, 37 °C, 15 minutes
Procedure: The test was performed in an in vitro system utilizing human liver S9 fraction in the presence of an NADPH production system described below. A reaction mixture of a total volume of 125 μL containing components at given final concentrations was prepared (50 μmol/L of test compound, 6 mmol/L of MgCl2.6H2O, 1 mmol/L of β-NADP^+, 10 mmol/L of glucose-6-phosphate (G-6-P), 0.7 U/mL of G-6-P dehydrogenase, 100 mmol/L of potassium phosphate (pH 7.4), 0.1 mmol/L of EDTANa2, and 1 mg/mL of human liver S9), and incubated at 37 C.° for 15 minutes. The reaction was stopped by the addition of 125 μL of N,N-dimethylformamide containing a substance for internal standard. The reaction mixture was centrifuged (2,000×g, 10 minutes), and the supernatant was subjected to HPLC analysis to determine the concentration of unchanged substance. Consumed amount was calculated from the concentration of unchanged substance, and the metabolic rate was represented as activity per unit amount of protein.

Structure (SMILES) | reverse mutagenicity [1] | death of the animal [2] | ED50 ([3]; Rattus norvegicus) [µg/kg] | time from insertion to excretion of glass bead ([4]; dose 3 mg/kg oral) [s] | time from insertion to excretion of glass bead ([4]; dose 10 mg/kg oral) [s] | time from insertion to excretion of glass bead ([4]; dose 30 mg/kg oral) [s] | reverse mutagenicity ([1]; method of Matsushima et al., OECD guideline 471) | ED50 value [3] [µg/kg] | Metabolic activity [5] [nmol/min/mg protein]
Cc1cc(Cl)cc2nc(N3CCCNCC3)oc12.Cl [Example 1 (b), 5-Chloro-2-(1-homopiperazinyl)-7-methylbenzoxazole hydrochloride] | negative | no death | 0.25 | 218.39 | 313.60 | 239.11 |  |  | 
Cc1cc(C)c2oc(N3CCNCC3)nc2c1.Cl [Hydrochloride of C, hydrochloride of 5,7-dimethyl-2-(1-piperazinyl)benzoxazole] |  |  |  | 234.01 | 251.00 | 357.08 | negative | 27.2 | 0.06
